Reference: patent US10106515B2, “1-(cyclopent-2-en-1-yl)-3-(2-hydroxy-3-(arylsulfonyl)phenyl)urea derivatives as CXCR2 inhibitors” (GLAXOSMITHKLINE INTELLECTUAL PROPERTY DEVELOPMENT LIMITED, priority 2014, dated 2018)
Structures can show the parent of a compound that is named as a salt. Where two headings read alike, the source gives them in different places. Each block holds one compound with its values, some of them ahead of it.

Experiments:
[1] = tested on: upregulation of CD11b in GROα stimulated neutrophils in human whole blood; assay: Human whole blood assay (CD11b upregulation); assay type: cell-based; details: Neutrophil, inhibition of CD11b upregulation, GROα 33 nM final, flow cytometry, read-out: pIC50 (human whole blood assay) (converted)
Protocol: The whole blood assay tested the compounds' ability to inhibit the upregulation of CD11b in GROα stimulated neutrophils in human whole blood.
Blood was withdrawn by venipuncture from consented adults and poured into a Sterilin tube containing an anti-coagulant Heparin (10 uL/mL of blood). All the test compounds were dissolved in DMSO to 4 mM and serial diluted across the plate, 1 in 3 to provide 10 point dose response curves. The compounds were then diluted 100 fold in -PBS [Phosphate buffered saline (without Calcium Chloride and Magnesium Chloride)] after which, 1 uL was dispensed in 96 U bottom Costar plates using an FX.
10 uL of blood was transferred to the compound plate using a multi-channel pipette, gently tapped and incubated for 15 minutes, at 37° C. After 15 minutes, the stimulant GROα was diluted to 100 nM in 0.1% BSA (Albumin Bovine Serum)-PBS and 5 uL is dispensed across the whole plate for a final concentration of 33 nM. The plate was gently tapped and incubated further for 15 minutes at 37° C. The plate was placed on ice for 1 minute before addition of 10 uL of an antibody cocktail consisting of CD11b-FITC (40 ug/mL) purchased from BioLegend (address: Cambridge Bioscience, Munro House, Trafalgar Way, Bar Hill, Cambridge, UK) and CD16-PE purchased from BD Pharmingen (address: The Danby Building, Edmung Halley Road, Oxford Science Park, Oxford, UK) (stock concentration 100 tests, 2 mL stock volume is diluted 1 in 5). The plate was placed on ice for 1 hour in the dark. The cells were then fixed using 200 uL/well of 1×FACS (Flow Activated Cell Sorting) Lyse solution (Becton and Dickinson-BD) and on ice for 20 minutes in the dark. The plate was centrifuged at 1600 rpm for 5 minutes and re-suspended with 200 uL of ice cold PBS. This step was repeated twice and on the final step the plate was re-suspended with 50 uL of ice cold -PBS for flow Cytometric analysis.
Samples were run on a Becton and Dickinson (BD)-Acurri C6 Flow Cytometer using a HyperCyt sampling apparatus (IntelliCyt) with a flow rate 2 uL/sec. CD11b upregulation is monitored in neutrophils and identified using a combination of both side scatter and CD16 expression.

[2] = target: T1, recombinant human CXCR2 (Homo sapiens, UniProt P25025); assay: CXCR2 Tango assay; assay type: cell-based; details: mean pIC50 of multiple test results; stimulated with 80 nM hCXCL1; reporter gene blue/green emission ratio; read-out: pIC50 (CXCR2 Tango assay) (converted)
T1 construct: TEV protease site; Gal4-VP16 transcription factor
T1 sequence (P25025 1-360): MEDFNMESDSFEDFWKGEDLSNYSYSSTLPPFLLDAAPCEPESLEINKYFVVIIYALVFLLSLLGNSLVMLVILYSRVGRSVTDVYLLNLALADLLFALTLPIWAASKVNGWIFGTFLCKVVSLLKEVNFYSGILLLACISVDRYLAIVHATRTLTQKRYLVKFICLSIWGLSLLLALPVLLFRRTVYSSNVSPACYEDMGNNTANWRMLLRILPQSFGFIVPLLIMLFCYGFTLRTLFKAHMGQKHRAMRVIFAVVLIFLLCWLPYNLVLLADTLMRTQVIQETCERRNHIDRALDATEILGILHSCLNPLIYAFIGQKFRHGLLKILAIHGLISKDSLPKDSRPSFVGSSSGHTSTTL
Summary of the method: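 A stable cell line carries human CXCR2 fused to a TEV site and Gal4-VP16, with protease-tagged arrestin. Cells (~10,000/well) were stimulated overnight at 37 °C with 80 nM hCXCL1 and a 10-point compound dilution. CCF4-AM beta-lactamase FRET (460/530 nm ratio) was read, normalized to hCXCL1 and DMSO, and mean pIC50 reported.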

IC50 [1]: 25.1 to 2510 nM | IC50 [2]: ≤ 10 nM
SMILES: CC1=CCCC1NC(=O)Nc1ccc(Cl)c(S(=O)(=O)N2CCN(C)CC2)c1O (centres unmarked) [Compound 142, 1-(4-chloro-2-hydroxy-3-((4-methylpiperazin-1-yl)sulfonyl)phenyl)-3-(2-methylcyclopent-2-en-1-yl)urea, trifluoroacetic acid salt]

IC50 ([1]; Homo sapiens): 25.1 to 2510 nM | IC50 [2]: ≤ 1 nM
SMILES: CC1=CCC[C@H]1NC(=O)Nc1ccc(Cl)c(S(=O)(=O)[C@H]2C[C@H](N3CCCC3)C2)c1O [Compound 192, 1-(4-chloro-2-hydroxy-3-((trans-3-(pyrrolidin-1-yl)cyclobutyl)sulfonyl)phenyl)-3-((R)-2-methylcyclopent-2-en-1-yl)urea]

IC50 [1]: 25.1 to 2510 nM | IC50 [2]: ≤ 10 nM
SMILES: CN(C)[C@H]1C[C@H](S(=O)(=O)c2c(Cl)ccc(NC(=O)N[C@@H]3CCC=C3Cl)c2O)C1 [Compound 184, 1-(4-chloro-3-((trans-3-(dimethylamino)cyclobutyl)sulfonyl)-2-hydroxyphenyl)-3-((R)-2-chlorocyclopent-2-en-1-yl)urea, trifluoroacetic acid salt]

IC50 [1]: 25.1 to 2510 nM | IC50 [2]: ≤ 10 nM
SMILES: CC1=CCC[C@H]1NC(=O)Nc1ccc(Cl)c(S(=O)(=O)N2CCNCC2)c1O [Compound 199, (R)-1-(4-chloro-2-hydroxy-3-(piperazin-1-ylsulfonyl)phenyl)-3-(2-methylcyclopent-2-en-1-yl)urea, trifluoroacetic acid salt]

IC50 [1]: 25.1 to 2510 nM | IC50 [2]: ≤ 10 nM
SMILES: CC1=CCCC1NC(=O)Nc1ccc(Cl)c(S(=O)(=O)C(C)(C)CF)c1O (centres unmarked) [Compound 104, 1-(4-chloro-3-((1-fluoro-2-methylpropan-2-yl)sulfonyl)-2-hydroxyphenyl)-3-(2-methylcyclopent-2-en-1-yl)urea]

IC50 [1]: 25.1 to 2510 nM | IC50 [2]: ≤ 10 nM
SMILES: COCC(C)S(=O)(=O)c1c(Cl)ccc(NC(=O)N[C@@H]2CCC=C2C)c1O (stereo partly drawn) [Compound 158, 1-(4-chloro-2-hydroxy-3-((1-methoxypropan-2-yl)sulfonyl)phenyl)-3-((R)-2-methylcyclopent-2-en-1-yl)urea]

IC50 [1]: 25.1 to 2510 nM | IC50 [2]: ≤ 1 nM
SMILES: CCN1CCC(F)(S(=O)(=O)c2c(Cl)ccc(NC(=O)N[C@@H]3CCC=C3Cl)c2O)CC1 [Compound 200, (R)-1-(4-chloro-3-((1-ethyl-4-fluoropiperidin-4-yl)sulfonyl)-2-hydroxphenyl)-3-(2-chlorocyclopent-2-en-1-yl)urea]

IC50 [1]: 25.1 to 2510 nM | IC50 [2]: ≤ 10 nM
SMILES: CO[C@H]1COC[C@@H]1S(=O)(=O)c1c(Cl)ccc(NC(=O)N[C@@H]2CCC=C2C)c1O [Compound 151, 1-(4-chloro-2-hydroxy-3-(((3S,4S)-4-methoxytetrahydro-furan-3-yl)sulfonyl)phenyl)-3-((R)-2-methylcyclopent-2-en-1-yl)urea]

IC50 [1]: 25.1 to 2510 nM | IC50 [2]: ≤ 10 nM
SMILES: O=C(Nc1ccc(Cl)c(S(=O)(=O)[C@H]2C[C@H](N3CCCC3)C2)c1O)N[C@@H]1CCC=C1Cl [Compound 185, 1-(4-chloro-2-hydroxy-3-((trans-3-(pyrrolidin-1-yl)cyclobutyl)sul-fonyl)phenyl)-3-((R)-2-chlorocyclopent-2-en-1-yl)urea, trifluoroacetic acid salt]

IC50 [1]: 25.1 to 2510 nM | IC50 [2]: ≤ 1 nM
SMILES: COC[C@@H](C)S(=O)(=O)c1c(Cl)ccc(NC(=O)N[C@@H]2CCC=C2C)c1O [Compound 122, 1-(4-chloro-2-hydroxy-3-(((R)-1-methoxypropan-2-yl)sulfonyl)phenyl)-3-((R)-2-methylcyclopent-2-en-1-yl)urea]

IC50 [1]: 25.1 to 2510 nM | IC50 [2]: ≤ 10 nM
SMILES: CC1=CCCC1NC(=O)Nc1ccc(Cl)c(S(=O)(=O)C2(C)CCOCC2)c1O (centres unmarked) [Compound 107, 1-(4-chloro-2-hydroxy-3-((4-methyltetrahydro-2H-pyran-4-yl)sulfonyl)phenyl)-3-(2-methylcyclopent-2-en-1-yl)urea]

IC50 [1]: 25.1 to 2510 nM | IC50 [2]: ≤ 1 nM
SMILES: CO[C@@H]1CCC[C@H]1S(=O)(=O)c1c(Cl)ccc(NC(=O)N[C@@H]2CCC=C2C)c1O (racemic) [Compound 144, (±)trans-1-(4-chloro-2-hydroxy-3-((2-methoxycyclopent-yl)sulfonyl)phenyl)-3-((R)-2-methylcyclopent-2-en-1-yl)urea, trifluoroacetic acid salt]

The next lines start with the compound.

SMILES: CC1=CCC[C@H]1NC(=O)Nc1ccc(Cl)c(S(=O)(=O)C2(C)CCOC2)c1O (stereo partly drawn) [Compound 68, 1-(4-chloro-2-hydroxy-3-((3-methyltetrahydro-furan-3-yl)sulfonyl)phenyl)-3-((R)-2-methylcyclopent-2-en-1-yl)urea]
IC50 ([1]; Homo sapiens): 25.1 to 2510 nM | IC50 [2]: ≤ 10 nM

SMILES: CC1=CCC[C@H]1NC(=O)Nc1ccc(Cl)c(S(=O)(=O)C(C)(C)CF)c1O [Compound 62, (R)-1-(4-chloro-3-((1-fluoro-2-methylpropan-2-yl)sulfonyl)-2-hydroxyphenyl)-3-(2-methylcyclopent-2-en-1-yl)urea]
IC50 [1]: 25.1 to 2510 nM | IC50 [2]: ≤ 1 nM

SMILES: CC1=CCC[C@H]1NC(=O)Nc1ccc(Cl)c(S(=O)(=O)[C@H]2C[C@H](N(C)C)C2)c1O [Compound 193, 1-(4-chloro-3-((trans-3-(dimethylamino)cyclobutyl)sulfonyl)-2-hydroxyphenyl)-3-((R)-2-methylcyclopent-2-en-1-yl)urea]
IC50 [1]: 25.1 to 2510 nM | IC50 [2]: ≤ 1 nM

SMILES: CC1=CCC[C@H]1NC(=O)Nc1ccc(Cl)c(S(=O)(=O)[C@H]2C[C@H](N3CC[C@@H](F)C3)C2)c1O [Compound 49, trans-1-(4-chloro-3-((3-((R)-3-fluoropyrrolidin-1-yl)cyclobutyl)sulfonyl)-2-hydroxyphenyl)-3-((R)-2-methylcyclopent-2-en-1-yl)urea, trifluoroacetic acid salt]
IC50 [1]: 25.1 to 2510 nM | IC50 [2]: ≤ 1 nM

SMILES: CC1=CCCC1NC(=O)Nc1ccc(Cl)c(S(=O)(=O)C(C)C)c1O (centres unmarked) [Compound 20, 1-(4-chloro-2-hydroxy-3-(isopropylsulfonyl)phenyl)-3-(2-methylcyclopent-2-en-1-yl)urea]
IC50 [1]: 25.1 to 2510 nM | IC50 [2]: ≤ 1 nM

SMILES: CC1=CCC[C@H]1NC(=O)Nc1ccc(Cl)c(S(=O)(=O)N2CCN3CCC[C@@]3(C)C2)c1O [Compound 93, 1-(4-chloro-2-hydroxy-3-(((S)-8a-methylhexahydro-pyrrolo[1,2-a]pyrazin-2(1H)-yl)sulfonyl)phenyl)-3-((R)-2-methylcyclopent-2-en-1-yl)urea, trifluoroacetic acid salt]
IC50 [1]: 25.1 to 2510 nM | IC50 [2]: ≤ 10 nM

SMILES: CC1=CCC[C@H]1NC(=O)Nc1ccc(Cl)c(S(=O)(=O)C2(C)CCCOC2)c1O (stereo partly drawn) [Compound 66, 1-(4-chloro-2-hydroxy-3-((3-methyltetrahydro-2H-pyran-3-yl)sulfonyl)phenyl)-3-((R)-2-methylcyclopent-2-en-1-yl)urea]
IC50 [1]: 25.1 to 2510 nM | IC50 [2]: ≤ 10 nM

SMILES: CC1=CCC[C@H]1NC(=O)Nc1ccc(C#N)c(S(=O)(=O)C(C)(C)C(F)(F)F)c1O [Compound 31, (R)-1-(4-cyano-2-hydroxy-3-((1,1,1-trifluoro-2-methylpropan-2-yl)sulfonyl)phenyl)-3-(2-methylcyclopent-2-en-1-yl)urea]
IC50 [1]: 25.1 to 2510 nM | IC50 [2]: ≤ 1 nM

SMILES: CC1=CCC[C@H]1NC(=O)Nc1ccc(Cl)c(S(=O)(=O)C2CC(F)(F)C2)c1O [Compound 76, (R)-1-(4-chloro-3-((3,3-difluorocyclobutyl)sulfonyl)-2-hydroxyphenyl)-3-(2-methylcyclopent-2-en-1-yl)urea trifluoroacetic acid salt]
IC50 [1]: 25.1 to 2510 nM | IC50 [2]: ≤ 1 nM

SMILES: CC1=CCC[C@H]1NC(=O)Nc1ccc(Cl)c(S(=O)(=O)C2(F)CCOCC2)c1O [Compound 75, (R)-1-(4-chloro-3-((4-fluorotetrahydro-2H-pyran-4-yl)sulfonyl)-2-hydroxyphenyl)-3-(2-methylcyclopent-2-en-1-yl)urea]
IC50 [1]: 25.1 to 2510 nM | IC50 [2]: ≤ 1 nM
